# Laboratory results taken from PMC12613110, “Anti-Trypanosoma cruzi Effects of Sesquiterpenoids from Branches of Drimys brasiliensis (Winteraceae)” (ACS Omega, 2025).
# Test system: not listed separately
# Experiment: Mammalian cytotoxicity, MTT assay (48 h)
# Type: cell-based
# Settings: mouse, NCTC clone L929 cells
# Method: (§1) The trypomastigote forms of T. cruzi (Y strain) were maintained in culture using Rhesus monkey kidney cells (LLC-MK2, ATCC CCL-7). These cells were cultured in RPMI-1640 medium supplemented with 2% fetal bovine serum (FBS) and incubated at 37 °C in a humidified atmosphere containing 5% CO2. Mouse fibroblast cells (NCTC clone L929, ATCC) and LLC-MK2 cells were similarly maintained in RPMI-1640 medium supplemented with 10% FBS under identical incubation conditions (37 °C, 5% CO2). Peritoneal macrophages were isolated from BALB/c mice by peritoneal lavage using RPMI-1640 medium supplemented with 10% FBS, followed by incubation at 37 °C in a 5% CO2 humidified atmosphere. In addition, the human monocytic cell line THP-1 (ATCC TIB-202) was cultured in RPMI-1640 medium supplemented with 20% FBS and […] glutamine, and maintained at 37 °C in a humidified 5% CO2 environment.
# The cytotoxicity of compounds 1–6 was assessed using NCTC (clone L929) cell line. NCTC cells (6 × 10^4 cells/well) were seeded into 96-well plates and treated with serial dilutions of the test compounds prepared in RPMI-1640 medium supplemented with 10% fetal bovine serum (FBS). Following a 48-h incubation at 37 °C in a humidified atmosphere with 5% CO2, cell viability was determined using the MTT colorimetric assay. The 50% cytotoxic concentration (CC50) was calculated based on absorbance measurements at 570 nm using a FilterMax F5 microplate reader (Molecular Devices).
# (§2) The CC50 and EC50 values were obtained from sigmoid dose–response curves using Graph-Pad Prims 6.0 software. All samples were tested in triplicate.
row,SMILES,CC50 at 48 h
1,"C=C1[C@@H](C)CC[C@]2(C)[C@@H](C=O)C(C=O)=CC[C@@H]12 [Compound 6, 9-deoxymuzigadial]",> 200 µM

# Same assay, conditions: mouse, NCTC clone L929 fibroblast cells
row,SMILES,CC50 at 48 h
1,"CC(C)=CCC[C@@H](C)C1=CC(=O)[C@@](C)(O)CC1 (relative stereo) [Compound 1, rel-(3S,7R)-3-hydroxy-bisabola-1(6),10-dien-2-one]",> 200 µM
2,"CC(C)=CCC[C@@H](C)C1=C[C@H](O)[C@@](C)(O)CC1 (relative stereo) [Compound 2, rel-(2S,3S,7R)-bisabola-1(6),10-diene-2,3-diol]",> 200 µM
3,"CC(C)=CCC[C@@H](C)[C@]12C=C[C@](C)(CC1)OO2 (relative stereo) [Compound 3, rel-(3S,6R,7R)-3,6-epidioxy-1,10-bisaboladiene]",> 200 µM
4,"CC(C)=CCC[C@@H](C)c1ccc(C)cc1 [Compound 4, α-curcumene]",> 200 µM
5,"CC1(C)CCC[C@]2(C)[C@@H](C=O)C(C=O)=CC[C@@H]12 [Compound 5, polygodial]",> 200 µM
6,"O=C(Cn1ccnc1[N+](=O)[O-])NCc1ccccc1 [benznidazole, reference compound]",> 200 µM

# Test system: intracellular amastigote forms of T. cruzi
# Experiment: Activity against intracellular amastigote forms of T. cruzi in infected peritoneal macrophages (48 h)
# Type: cell-based
# Settings: Trypanosoma cruzi, Peritoneal macrophage, intracellular amastigotes in peritoneal macrophages, ± SD, NA: nonactive
# Method: as §1
# The antiparasitic activity of compounds 1–6 against the intracellular amastigote forms of T. cruzi was assessed using an in vitro infection model with peritoneal macrophages. Macrophages were seeded in 16-well plates at a density of 1 × 10^5 cells per well and incubated at 37 °C in a humidified atmosphere containing 5% CO2 for 24 h to promote adherence. Cells were then infected with trypomastigotes for 2 h under the same conditions to allow parasite internalization. Following infection, noninternalized parasites were removed by washing with RPMI-1640 medium. The infected macrophages were subsequently treated with serial dilutions of compounds 1–6 (150.0–1.6 μM) and incubated for an additional 48 h at 37 °C in 5% CO2 to evaluate their antitrypanosomal efficacy. ,
# as §2
row,SMILES,EC50
1,"CC(C)=CCC[C@@H](C)C1=CC(=O)[C@@](C)(O)CC1 (relative stereo) [Compound 1, rel-(3S,7R)-3-hydroxy-bisabola-1(6),10-dien-2-one]",6.7 ± 3.8 µM
2,"CC(C)=CCC[C@@H](C)C1=C[C@H](O)[C@@](C)(O)CC1 (relative stereo) [Compound 2, rel-(2S,3S,7R)-bisabola-1(6),10-diene-2,3-diol]",24.2 ± 4.4 µM
3,"CC(C)=CCC[C@@H](C)c1ccc(C)cc1 [Compound 4, α-curcumene]",4.9 ± 0.1 µM
4,"CC1(C)CCC[C@]2(C)[C@@H](C=O)C(C=O)=CC[C@@H]12 [Compound 5, polygodial]",3.5 ± 0.2 µM
5,"C=C1[C@@H](C)CC[C@]2(C)[C@@H](C=O)C(C=O)=CC[C@@H]12 [Compound 6, 9-deoxymuzigadial]",3.1 ± 0.1 µM
6,"O=C(Cn1ccnc1[N+](=O)[O-])NCc1ccccc1 [benznidazole, reference compound]",5.5 ± 2.2 µM

# Test system: Leishmania infantum
# Experiment: not given
# Parameters: method as in previous study by our group
# Settings: after a short incubation period; ref previous study by our group; cited from earlier work
row,SMILES,ultrastructural damage to Leishmania
1,"CC1(C)CCC[C@]2(C)[C@@H](C=O)C(C=O)=CC[C@@H]12 [Compound 5, polygodial]",intense mitochondrial swelling

# Test system: T. cruzi trypomastigotes (Y strain)
# Experiment: Anti-T. cruzi activity against trypomastigote forms (resazurin reduction assay, 24 h)
# Type: cell-based
# Settings: Trypanosoma cruzi, ± SD
# Method: as §1
# Compounds 1–6 were initially dissolved in DMSO and subsequently diluted in RPMI-1640 medium to the desired concentrations before being dispensed into 96-well microplates. T. cruzi trypomastigotes were then added at a density of 1 × 10^6 parasites per well. The plates were incubated for 24 h at 37 °C in a humidified atmosphere containing 5% CO2. Following incubation, the 50% effective concentration (EC50) was determined using the resazurin reduction assay. Absorbance readings were acquired at 570 nm using a microplate spectrophotometer (FilterMax F5). Untreated parasites served as the negative control, while benznidazole, a standard reference drug, was used as the positive control.
# as §2
row,SMILES,EC50
1,"CC(C)=CCC[C@@H](C)C1=CC(=O)[C@@](C)(O)CC1 (relative stereo) [Compound 1, rel-(3S,7R)-3-hydroxy-bisabola-1(6),10-dien-2-one]",38.5 ± 2.7 µM
2,"CC(C)=CCC[C@@H](C)C1=C[C@H](O)[C@@](C)(O)CC1 (relative stereo) [Compound 2, rel-(2S,3S,7R)-bisabola-1(6),10-diene-2,3-diol]",88.3 ± 6.5 µM
3,"C=C1[C@@H](C)CC[C@]2(C)[C@@H](C=O)C(C=O)=CC[C@@H]12 [Compound 6, 9-deoxymuzigadial]",5.9 ± 0.9 µM

# Next, values leading:
row,EC50,SMILES
1,65.5 ± 5.4 µM,"CC(C)=CCC[C@@H](C)[C@]12C=C[C@](C)(CC1)OO2 (relative stereo) [Compound 3, rel-(3S,6R,7R)-3,6-epidioxy-1,10-bisaboladiene]"
2,20.5 ± 1.6 µM,"CC(C)=CCC[C@@H](C)c1ccc(C)cc1 [Compound 4, α-curcumene]"
3,3.8 ± 3.1 µM,"CC1(C)CCC[C@]2(C)[C@@H](C=O)C(C=O)=CC[C@@H]12 [Compound 5, polygodial]"
4,17.4 ± 1.8 µM,"O=C(Cn1ccnc1[N+](=O)[O-])NCc1ccccc1 [benznidazole, reference compound]"
